The source of these data is patent US20090105305A1, “Therapeutic Agents - 550” (AstraZeneca AB, priority 2006, published 2009).

For one test, the target named is T1, human Fatty Acid Synthase (Homo sapiens, UniProt P49327).
T1 construct: made in house
T1 sequence (P49327 whole entry): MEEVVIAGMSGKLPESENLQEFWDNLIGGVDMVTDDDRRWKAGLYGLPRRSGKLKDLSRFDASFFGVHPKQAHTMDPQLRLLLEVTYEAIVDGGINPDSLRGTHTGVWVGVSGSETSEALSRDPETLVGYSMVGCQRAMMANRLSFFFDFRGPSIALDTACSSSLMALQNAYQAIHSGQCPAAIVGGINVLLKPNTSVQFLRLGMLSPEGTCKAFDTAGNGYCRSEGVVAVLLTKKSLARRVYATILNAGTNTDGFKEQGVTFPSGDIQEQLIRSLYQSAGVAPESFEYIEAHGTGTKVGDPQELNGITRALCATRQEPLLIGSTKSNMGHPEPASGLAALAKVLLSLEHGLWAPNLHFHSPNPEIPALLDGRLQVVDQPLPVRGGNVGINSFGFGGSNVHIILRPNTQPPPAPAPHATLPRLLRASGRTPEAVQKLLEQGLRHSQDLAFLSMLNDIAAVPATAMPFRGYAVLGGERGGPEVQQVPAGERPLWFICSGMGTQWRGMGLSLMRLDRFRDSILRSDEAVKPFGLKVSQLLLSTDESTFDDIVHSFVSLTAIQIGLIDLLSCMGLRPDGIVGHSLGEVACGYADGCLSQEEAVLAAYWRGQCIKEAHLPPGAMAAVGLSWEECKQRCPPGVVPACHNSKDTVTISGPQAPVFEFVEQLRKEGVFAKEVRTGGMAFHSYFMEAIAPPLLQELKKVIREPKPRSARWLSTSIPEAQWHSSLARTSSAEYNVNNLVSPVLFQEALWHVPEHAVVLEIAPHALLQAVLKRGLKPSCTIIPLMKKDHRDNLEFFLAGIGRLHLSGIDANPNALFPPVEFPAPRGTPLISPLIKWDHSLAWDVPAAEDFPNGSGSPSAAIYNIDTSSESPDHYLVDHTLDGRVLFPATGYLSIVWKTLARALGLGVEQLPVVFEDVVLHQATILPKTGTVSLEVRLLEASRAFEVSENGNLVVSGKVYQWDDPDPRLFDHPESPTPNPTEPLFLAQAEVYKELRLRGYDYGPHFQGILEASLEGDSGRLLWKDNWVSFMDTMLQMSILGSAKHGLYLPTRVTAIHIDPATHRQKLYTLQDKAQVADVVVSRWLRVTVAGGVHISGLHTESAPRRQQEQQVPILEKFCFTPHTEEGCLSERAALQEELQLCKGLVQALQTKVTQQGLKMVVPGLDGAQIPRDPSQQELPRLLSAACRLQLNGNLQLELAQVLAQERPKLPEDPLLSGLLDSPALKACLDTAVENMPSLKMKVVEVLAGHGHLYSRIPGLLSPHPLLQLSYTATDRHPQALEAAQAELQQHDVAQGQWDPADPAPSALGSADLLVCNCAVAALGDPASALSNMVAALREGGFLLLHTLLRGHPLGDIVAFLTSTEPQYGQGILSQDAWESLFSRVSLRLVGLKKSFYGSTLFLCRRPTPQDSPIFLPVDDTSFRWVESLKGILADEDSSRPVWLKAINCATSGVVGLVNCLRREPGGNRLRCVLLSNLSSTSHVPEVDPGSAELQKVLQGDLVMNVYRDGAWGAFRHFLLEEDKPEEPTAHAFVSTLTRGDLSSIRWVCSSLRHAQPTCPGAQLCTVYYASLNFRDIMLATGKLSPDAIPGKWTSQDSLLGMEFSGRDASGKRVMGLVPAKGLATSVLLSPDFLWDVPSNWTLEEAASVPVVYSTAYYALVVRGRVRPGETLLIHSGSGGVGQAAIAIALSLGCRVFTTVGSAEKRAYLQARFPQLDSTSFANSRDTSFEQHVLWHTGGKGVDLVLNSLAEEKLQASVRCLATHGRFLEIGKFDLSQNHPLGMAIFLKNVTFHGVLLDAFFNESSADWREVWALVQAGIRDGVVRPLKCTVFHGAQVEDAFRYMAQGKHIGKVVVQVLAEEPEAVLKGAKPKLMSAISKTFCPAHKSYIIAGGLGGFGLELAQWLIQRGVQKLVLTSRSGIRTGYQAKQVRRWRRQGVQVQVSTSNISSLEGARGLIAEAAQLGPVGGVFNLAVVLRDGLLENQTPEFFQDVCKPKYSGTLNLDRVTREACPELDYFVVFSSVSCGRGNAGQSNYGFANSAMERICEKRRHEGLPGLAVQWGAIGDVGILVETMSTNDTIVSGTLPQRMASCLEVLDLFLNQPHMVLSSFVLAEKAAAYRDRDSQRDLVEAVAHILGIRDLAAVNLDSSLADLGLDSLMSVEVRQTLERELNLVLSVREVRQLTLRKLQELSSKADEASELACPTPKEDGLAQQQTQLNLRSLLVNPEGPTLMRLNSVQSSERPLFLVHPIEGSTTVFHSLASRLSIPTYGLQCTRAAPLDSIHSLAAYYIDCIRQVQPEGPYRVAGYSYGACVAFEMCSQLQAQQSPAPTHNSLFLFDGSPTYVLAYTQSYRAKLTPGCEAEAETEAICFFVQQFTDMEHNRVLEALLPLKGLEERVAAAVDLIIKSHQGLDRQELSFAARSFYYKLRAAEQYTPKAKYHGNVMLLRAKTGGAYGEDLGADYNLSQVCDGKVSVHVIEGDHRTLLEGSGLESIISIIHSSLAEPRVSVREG
The test is described as follows: Human FAS enzyme assay (decrease in NADPH fluorescence). In kind it is biochemical. To be noted: % inhibition at a concentration of 100 micromolar. The text has this: The compounds of the present invention are Fatty Acid Synthase inhibitors. […] Human and Rat FAS Enzyme Assay.
Fatty acid synthase is an enzyme complex that harbours seven enzymatic activities catalysing the reductive synthesis of long chain fatty acids from acetyl CoA and malonyl CoA to palmitate. When acetyl CoA and malonyl CoA are forming palmitate NADPH is consumed forming NADP. Since NADPH is fluorescent but not NADP the reaction can be measured by analysing the decrease in fluorescence.
Compounds were added to a black 384 well plate (Matrix) in a volume of 5 μl consisting of 20% DMSO and 80% Tris buffer pH 7.5, at a top concentration of 1 mM. NADPH, 30 μl of 166.6 μM, formulated in assay buffer (0.1M Tris ph7.5, 0.1 mM EDTA, 1 mM glutathione, 0.05% BSA), was then added to all of the wells of the plate. Fatty acid synthase Human or rat enzyme (0.4 μg, produced in house), dissolved in 20 mM Tris/HCl pH 7.5, 5 mM BOG, 1 mM TCEP, 10% glycerol, 1 mM EDTA, 150 mM NaCl, was then added to the plate in a volume of […]. Enzyme was added to all but the last two columns of the plate, to which, 10 μl of assay buffer was added (0.1M Tris ph7.5, 0.1 mM EDTA, 1 mM glutathione, 0.05% BSA) to provide a no enzyme assay control. Following a 15-minute incubation period, at room temperature, the plates were read on an Envision plate reader using 340 nm excitation and 460 nm emission filters. This served as a time zero background read. Substrates (an equal mix of both malonyl and acetyl CoA) were then added to the plates in a total volume of 5 μl. The concentrations of malonyl and acetyl CoA in the mixture were 500 μM and 150 μM respectively. Both were prepared as 10 mM stock solutions in distilled water and were subsequently diluted to working concentrations in assay buffer. Plates were then incubated for a further 60 minutes, at room temperature, before being read again on the Envision reader using the same parameters as previously used. The data was analysed by subtracting the background time zero data from that generated following the final 60 minute incubate and the percent inhibition compared to the maximum and minimum assay controls was determined. Sigmoid curves were fitted using Origin 7.5 Client software and IC50 values were determined.
A word on the inhibition: it is the change of the read-out against control, counted positive when it falls. `Cc1cc(C)c(C(=O)N2CCC(c3ccc(C#N)cc3)CC2)cc1NS(=O)(=O)Cc1ccccc1` [Example 29, N-[5-[4-(4-cyanophenyl)piperidine-1-carbonyl]-2,4-dimethyl-phenyl]-1-phenyl-methanesulfonamide]: the inhibition at 100 µM is 93%.

Consider `N#Cc1ccc(C2CCN(C(=O)c3ccc(C#N)c(NS(=O)(=O)Cc4ccccc4)c3)CC2)cc1` [Example 196, N-[2-cyano-5-[4-(4-cyanophenyl)piperidine-1-carbonyl]phenyl]-1-phenylmethane-sulfonamide], for which the inhibition at 100 µM was found to be 96%.

In the case of `C#Cc1ccc(C2CCN(C(=O)c3ccc(C)c(NS(C)(=O)=O)c3)CC2)cc1` [Example 172, N-[5-[4-(4-ethynylphenyl)piperidine-1-carbonyl]-2-methylphenyl]methanesulfonamide], the inhibition at 100 µM came out at 85%.

Turning to `Cc1ccc(C(=O)N2CCC(c3ccc(C#N)cc3)CC2)cc1NS(=O)(=O)C1CCN(S(=O)(=O)C(C)C)CC1` [Example 119, N-[5-[4-(4-cyanophenyl)piperidine-1-carbonyl]-2-methyl-phenyl]-1-propan-2-ylsulfonyl-piperidine-4-sulfonamide], the inhibition at 100 µM was 94%.

`Cc1ccc(C(=O)N2CCC(c3ccc(C#N)cc3)CC2)cc1NS(=O)(=O)c1cccc(C(=O)N2CCOCC2)c1` [Example 97, N-[5-[4-(4-cyanophenyl)piperidine-1-carbonyl]-2-methyl-phenyl]-3-(morpholine-4-carbonyl)benzenesulfonamide]: the inhibition at 100 µM turned out to be 88%.

For the compound `C=CS(=O)(=O)Nc1cc(C(=O)N2CCC(c3ccc(C#N)cc3)CC2)ccc1C` [Example 98, N-[5-[4-(4-cyanophenyl)piperidine-1-carbonyl]-2-methyl-phenyl]ethenesulfonamide], the inhibition at 100 µM was 110%.

For the compound `Cc1ccc(C(=O)N2CCC(c3ccc(C#N)cc3)CC2)cc1NS(=O)(=O)c1c(C)noc1C` [Example 149, N-[5-[4-(4-cyanophenyl)piperidine-1-carbonyl]-2-methyl-phenyl]-3,5-dimethyl-1,2-oxazole-4-sulfonamide], the inhibition at 100 µM was 85%.

On to `Cc1ccc(Oc2ccc(C3CCN(C(=O)c4ccc(C)c(NS(C)(=O)=O)c4)CC3)cc2)nn1` [Example 229, N-[2-methyl-5-[4-[4-(6-methylpyridazin-3-yl)oxyphenyl]piperidine-1-carbonyl]phenyl]methanesulfonamide], for which the inhibition at 100 µM was 80.2%.

For `N#Cc1ccc(C2CCN(C(=O)c3ccc(F)c(NS(=O)(=O)Cc4ccccc4)c3)CC2)cc1` [Example 194, N-[5-[4-(4-cyanophenyl)piperidine-1-carbonyl]-2-fluorophenyl]-1-phenylmethane-sulfonamide], the inhibition at 100 µM was 69%.

Take `Cc1ccc(C(=O)N2CCC(c3ccc(C#N)cc3)CC2)cc1NS(=O)(=O)CC(=O)N(C)C` [Example 91, 2-[[5-[4-(4-cyanophenyl)piperidine-1-carbonyl]-2-methyl-phenyl]sulfamoyl]-N,N-dimethyl-acetamide]: the inhibition at 100 µM came out at 80%.

In the case of `CC(=O)NCCS(=O)(=O)Nc1cc(C(=O)N2CCC(c3ccc(C#N)cc3)CC2)ccc1C` [Example 78, N-[2-[[5-[4-(4-cyanophenyl)piperidine-1-carbonyl]-2-methyl-phenyl]sulfamoyl]ethyl]acetamide], the inhibition at 100 µM worked out at 95%.

In the case of `COC(=O)CS(=O)(=O)Nc1cc(C(=O)N2CCC(c3ccc(C#N)cc3)CC2)ccc1C` [Example 13, methyl 2-[[5-[4-(4-cyanophenyl)piperidine-1-carbonyl]-2-methyl-phenyl]sulfamoyl]acetate], the inhibition at 100 µM came out at 76%.

`Cc1ccc(C(=O)N2CCC(c3ccc(C#N)cc3)CC2)cc1NS(=O)(=O)Cc1ccc(S(C)(=O)=O)cc1` [Example 62, N-[5-[4-(4-cyanophenyl)piperidine-1-carbonyl]-2-methyl-phenyl]-1-(4-methylsulfonylphenyl)methanesulfonamide]: the inhibition at 100 µM was 82%.

Turning to `Cc1ccc(C(=O)N2CCC(c3ccc(C#N)cc3)CC2)cc1NS(=O)(=O)CCCN` [Example 126, 3-amino-N-[5-[4-(4-cyanophenyl)piperidine-1-carbonyl]-2-methyl-phenyl]propane-1-sulfonamide], the inhibition at 100 µM amounted to 87%.

Take `CCC(C)S(=O)(=O)Nc1ccc(C)c(C(=O)N2CCC(c3ccc(C#N)cc3)CC2)c1` (racemic) [Example 44, (RS) N-[3-[4-(4-cyanophenyl)piperidine-1-carbonyl]-4-methyl-phenyl]butane-2-sulfonamide]: the inhibition at 100 µM came to 89%.

For the compound `Cc1ccc(C(=O)N2CCC(c3ccc(C#N)cc3)CC2)cc1NS(=O)(=O)CCCNS(C)(=O)=O` [Example 132, N-[5-[4-(4-cyanophenyl)piperidine-1-carbonyl]-2-methyl-phenyl]-3-methanesulfonamido-propane-1-sulfonamide], the inhibition at 100 µM was determined as 88%.

For `Cc1ccc(C(=O)N2CCC(O)(c3ccc(Br)cc3)CC2)cc1NS(=O)(=O)Cc1ccccc1` [Example 201, N-[5-[4-(4-bromophenyl)-4-hydroxypiperidine-1-carbonyl]-2-methylphenyl]-1-phenylmethanesulfonamide], the inhibition at 100 µM is 68%.

In the case of `Cc1ccc(C(=O)N2CCC(c3ccc(OS(C)(=O)=O)cc3)CC2)cc1NS(C)(=O)=O` [Example 185, [4-[1-(3-methanesulfonamido-4-methylbenzoyl)piperidin-4-yl]phenyl]methanesulfonate], the inhibition at 100 µM came out at 80%.

Consider `CCS(=O)(=O)NCc1ccc(C2CCN(C(=O)c3ccc(C)c(NS(C)(=O)=O)c3)CC2)cc1` [Example 227, N-[[4-[1-(3-methanesulfonamido-4-methylbenzoyl)piperidin-4-yl]phenyl]methyl]ethanesulfonamide], for which the inhibition at 100 µM was 87.4%.

As for `Cc1ccc(NS(=O)(=O)Cc2ccc(F)cc2F)cc1C(=O)N1CCC(c2ccc(C#N)cc2)CC1` [Example 56, N-[3-[4-(4-cyanophenyl)piperidine-1-carbonyl]-4-methyl-phenyl]-1-(2,4-difluorophenyl)methanesulfonamide], the inhibition at 100 µM is 89%.

With `Cc1ccc(C(=O)N2CCC(c3ccc(CNC(=O)CC(C)C)cc3)CC2)cc1NS(C)(=O)=O` [Example 236, N-[[4-[1-(3-methanesulfonamido-4-methylbenzoyl)piperidin-4-yl]phenyl]methyl]-3-methylbutanamide], the inhibition at 100 µM stood at 59.8%.

The same test, now with this note: compounds excluded from the claims by proviso.
On to `CS(=O)(=O)Nc1cc(C(=O)N2CCC(c3ccc(C#N)cc3)CC2)ccc1Cl` [N-[2-chloro-5-[4-(4-cyanophenyl)piperidine-1-carbonyl]phenyl]methanesulfonamide], for which the “IC50s in the range of about 0.001 μM to about 30 μM” value (from here on “IC50s in the range”) is reported as “do not have IC50s in the range of about 0.001 μM to about 30 μM”.

As to `CNC(=O)c1ccccc1S(=O)(=O)Nc1cc(C(=O)N2CCC(c3ccc(C#N)cc3)CC2)ccc1C` [2-[[5-[4-(4-cyanophenyl)piperidine-1-carbonyl]-2-methylphenyl]sulfamoyl]-N-methylbenzamide], the “IC50s in the range” value was “do not have IC50s in the range of about 0.001 μM to about 30 μM”.

Take `C[S+]([O-])c1ccc(C(=O)N2CCC(c3ccc(C#N)cc3)CC2)cc1NS(C)(=O)=O` (stereo not drawn) [N-[5-[4-(4-cyanophenyl)piperidine-1-carbonyl]-2-methylsulfinylphenyl]methanesulfonamide]: the “IC50s in the range” value is recorded as “do not have IC50s in the range of about 0.001 μM to about 30 μM”.
